Experiment: gradient 5% acetonitrile 3 min, to 50% in 2 min, to 85% in 15 min, held 3 min, 100 µL/min
Conditions: column: Zorbax Extend-C18 2.1 x 50 mm; eluents: water / acetonitrile, 0.1% formic acid
Outline: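 Retention times come from adduct peaks that were picked computationally and then checked by hand. The standards, pure and pooled in mixtures of ~100 molecules, were run on a Zorbax Extend-C18 column (2.1 × 50 mm, 1.8 μm) at 100 μL/min with water and acetonitrile, each with 0.1% formic acid. Detection was by quadrupole time-of-flight mass spectrometry in positive and negative ionization mode, with a dead volume of 40 μL and a dwell volume of 900 μL.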

SMILES	RP-LC retention time [s]
CSc1ccc(-c2noc(-c3nnn4c3COC(c3ccc(C)cc3C)C4)n2)cc1 (stereo unspecified)	1360
Cc1noc(-c2nn(C)c3c2CN(C(=O)CC2CCCC2)CC3)n1	759
CC(C)c1ccc(S(=O)(=O)NCc2ccsc2)cc1	954
CCOC(=O)c1c(C)[nH]c(CCC(=O)Nc2ccc(C(C)=O)cc2)c1C	800
Cc1csc(-c2cc(S(=O)(=O)N3CCCCC3)cn2CC(=O)N2CCCCC2)n1	1020
O=C(c1ccc(F)c(F)c1)N1CCN(CCn2cccn2)CC1	543
O=C(NC1CC1)C1CCc2sc(C(=O)N3CCCC3)cc2C1 (stereo unspecified)	654
O=C1CC(c2ccc(O)cc2)Oc2cc(O)cc(O)c21 (stereo unspecified)	784
O=C1NC(C(=O)NCC2CCCCC2)Cn2cccc21 (stereo unspecified)	681
CCN1CCN(c2ncc3c(n2)CC(c2cc(OC)c(OC)c(OC)c2)CC3=O)CC1 (stereo unspecified)	564
Cc1ccc(CN2CCn3c(nnc3[C@@H]3C[C@@H](O)CN3Cc3cccnc3)C2)s1	566
Cc1nc2sc(C)c(C)n2c(=O)c1NC(=O)c1ccc(Br)o1	688
CCc1ccc(N2C(=O)C3N=NN(c4ccc(Br)c(C)c4)C3C2=O)cc1 (stereo unspecified)	1190
CCN(CC)CCCNC(=O)c1noc2c1CCCCC2	632
Cc1cnc(C2CN(CC3CCCCC3)C2)n1Cc1ccccc1	600
COc1ccc(N2CCN(S(=O)(=O)N(C)C)CC2)cc1	736
CC1CO/C(=C2\C(=O)OCC2C)C1 (stereo unspecified)	812
O=C1CCN(C(=O)c2cccs2)CCCCCCN1	622
Cc1cccc(NS(=O)(=O)c2ccc3c(c2)CCCC(=O)N3)c1C	813
COCCOC1CCN(S(=O)(=O)c2cccc(OC)c2)CC1	811
Cn1c(=O)sc2cc(S(=O)(=O)N3CCC(C(=O)Nc4ccccc4)CC3)ccc21	835
Cc1ccc2[nH]c(C(=O)NCC3CCCO3)cc2c1 (stereo unspecified)	776
CC(C)OCCCNC(=O)Cn1nc2c(cc1=O)CCCCC2	698
CCCN(CC1CCOC1)C(=O)Nc1ccc(CC)cc1 (stereo unspecified)	811

SMILES	RP-LC retention time [s]
O=C(Nc1ccc(C(F)(F)F)cc1)C1CCCN(S(=O)(=O)c2c[nH]c(C(=O)N3CCCC3)c2)C1 (stereo unspecified)	908
COc1ccc(N2CCN(C3CC(=O)N(Cc4ccc(N5CCCC5=O)cc4)C3=O)CC2)cc1 (stereo unspecified)	662
COc1ccc(OC)c(S(=O)(=O)Nc2ccc(Br)cc2C)c1	945
O=C(Nc1cccs1)N1CC(c2nc(C3CC3)no2)C1	681
CCS(=O)(=O)c1ccc2c(c1)N(Cc1nc(-c3ccc(OC(F)(F)F)cc3)no1)C(=O)CO2	1030
CSc1cccc(NC(=O)Cn2ncc3c(c2=O)N(CC2CC2)C(=O)CS3)c1	1190
CCOCC1CCC2(CCN(S(=O)(=O)c3ccc(C)c(F)c3)CC2)O1 (stereo unspecified)	1090
O=S(=O)(c1cccnc1)N1CC(c2nc(CCOCC3CCOCC3)no2)C1	710
O=S(=O)(c1cccc2nsnc12)N1CC[C@@H]2COCCN(Cc3cccnc3)[C@@H]2C1	615
COc1ccc(OCC(=O)Nc2ccc(-c3nc(-c4ccc(OC)cc4)no3)cc2)cc1	1180
Cc1cccc(N2CCN(C(=O)C3CCN(C(=O)C4Sc5ccccc5NC4=O)CC3)CC2C)c1 (stereo unspecified)	725
CCC(=O)N(C1CCOCC1)C1CCN(S(=O)(=O)c2cc(F)cc(F)c2)CC1	856
Cc1cc2c(cc1S(=O)(=O)N1CCCC1C(=O)Nc1ccc(C(C)C)cc1)OCC(=O)N2 (stereo unspecified)	902
O=C(Nc1nc2ccccc2s1)C1CCCN(c2ncnc3c2nc2n3CCCCC2)C1 (stereo unspecified)	909
O=C(CCC1CCCN(c2cc(NC3CC3)ncn2)C1)NCc1cccs1 (stereo unspecified)	640
Cc1ccc(-c2noc(C3CC3)n2)cc1S(=O)(=O)N1CCC(C(=O)N2CCc3ccccc32)CC1	1140
Cc1ccn2c(Nc3ccccc3C)c(-c3ccc(N4CCOCC4)cc3)nc2c1	746
COc1ccc(S(=O)(=O)N2CC=C(c3cn(C(C)C)c4ncccc34)CC2)cc1	1070
CCOc1ccc(-c2ccc(=O)n(Cc3nc(-c4ccc(CC)cc4)no3)n2)cc1	1230
O=C(NC1CCCC1)N1CCN(c2ncccc2-c2nnc(C3CC3)o2)CC1	719
COc1ccc2c(c1)C=C(C(=O)Nc1cc(OC)c(OC)c(OC)c1)CO2	909
CCCCN1CCN(C(=O)c2nnc(-c3ccc(S(=O)(=O)N(C)C)cc3)o2)CC1	620
O=C(Cc1cccs1)N1CCCC1c1nc(-c2ccc(F)cc2F)no1 (stereo unspecified)	935
Cc1ccc(-n2nc3c(=O)n(CCCC(=O)NC4CCCC4)nc(C)c3c2C)cc1	797

The remaining lines, values ahead:

RP-LC retention time [s]	SMILES
687	COc1ccc(NC(=O)CSc2nccc3c2ccn3C)c(OC)c1
668	O=C(Cc1ccsc1)Nc1cccc(-c2nnc3n2CCCC3)c1
1150	Cc1ccc(C)c(-c2csc(NC(=O)COc3ccccc3)n2)c1
670	COc1cccc(CNC(=O)Nc2cccc(-c3ccc(N4CCOCC4)nn3)c2)c1
770	COCc1nncn1C1CCN(S(=O)(=O)c2ccc(Cl)cc2C)CC1
609	O=C(Nc1nccnc1C(=O)NCCCN1CCCC1)c1ccccc1
643	O=C(Nc1ccc(-c2ccc(=O)[nH]n2)cc1)c1ccc(-n2cccn2)nn1
850	Cc1ccc(NC(=O)Cc2csc3nc(-c4ccc(C)c(C)c4)cn23)cc1C
721	COC(=O)c1cnc2nc(C)ccc2c1Nc1ccc(Cl)cc1C
656	Cc1cc(=O)n(CC(=O)NCc2ccc(F)cc2)c(N2CCCCC2)n1
700	COc1cccc(NC(=O)Cn2nc3c(N4CCCCCC4)nccn3c2=O)c1
827	O=C(Nc1ccc(Cl)cc1F)N1CCC(n2c(-c3ccco3)nc3cccnc32)C1 (stereo unspecified)
924	COc1ccccc1NS(=O)(=O)c1ccc(-c2c(C)noc2C)cc1
573	COc1nn(C)cc1C(=O)NCc1n[nH]c(=O)c2ccccc12
681	COc1ccc(OCc2noc(CNC(=O)Cc3c[nH]c4ccccc34)n2)cc1
745	CCCn1cc(C(=O)NCCN(C)C)c(S(=O)(=O)N2CCN(c3cccc(Cl)c3)CC2)n1
635	COCc1nncn1C1CCN(C(=O)c2cc(F)ccc2Cl)CC1
580	O=C(NCCCOc1cccc2cccnc12)c1ccc(F)cc1Cl
889	Cc1cccc(CNC(=O)CN2C(=O)CCc3cc(Br)ccc32)c1
823	O=C(NC1CCN(c2ccc(F)cc2)C1=O)c1ccccc1C(F)(F)F (stereo unspecified)
645	Cc1cc(C(=O)Nc2ccc3scnc3c2)no1
815	Cc1nnc(NC(=O)c2ccc(OCc3nc(-c4ccco4)cs3)cc2)s1

RP-LC retention time [s]	SMILES
626	CN(C)C(=O)c1ccc2c(c1)nnn2CCNC(=O)Nc1ccccc1
918	COc1cccc(Cn2nc3c(S(=O)(=O)N4CCCCCC4)cccn3c2=O)c1
1020	CCc1nn2c(CNC(=O)c3ccc(F)c(Cl)c3)c(-c3ccccc3)nc2s1
669	CCCN1C(=O)c2[nH]nc(-c3cccc(OC)c3)c2C1c1cccnc1 (stereo unspecified)
725	CCOc1ccccc1NC(=O)N1CCCC(Cn2c(C3CC3)nc3cccnc32)C1 (stereo unspecified)
914	COc1ccc(-c2cc3nn(CC(=O)Nc4ccc(F)cc4)c(=O)n3c(C)n2)cc1
719	O=C(NCCc1ccsc1)C(=O)Nc1cccc(N2CCCCC2=O)c1
633	CC(NC(=O)c1ccc(NC(=O)C2CC2)cc1N1CCCCCC1)c1ccccn1 (stereo unspecified)
868	O=C(Nc1cccc(OCc2nnc(-c3ccccc3)o2)c1)c1ccoc1
919	CC1(C(=O)NCc2ccccc2)CCN(C(=O)Nc2cccc(C(F)(F)F)c2)CC1
1200	CC1CCN(C(=O)c2cccn2Cc2noc(-c3ccc(Cl)cc3)n2)CC1
677	CC(C)Cc1nc2cccnc2n1C1CCN(C(=O)Nc2ccccc2)CC1
788	Cc1cccc(Cl)c1S(=O)(=O)Nc1ccc2c(c1)CCC(=O)N2C
1060	CCn1nnc2ccc(-c3noc(-c4cccc(OC)c4)n3)cc21
890	COc1ccc(NC(=O)C2CN(S(=O)(=O)c3cccnc3)CC23CCCCC3)cc1 (stereo unspecified)
1210	Cc1ccc(-c2ccc(-n3nc(C)c(S(=O)(=O)NCCC(C)C)c3C)nn2)cc1
781	CC(=O)Nc1cc2c(cc1Sc1ccccc1Cl)n(C)c(=O)n2C
833	CC(=O)Nc1nonc1-c1nnc(SCC(=O)Nc2nc(-c3ccccc3)cs2)n1C
690	COCCNC(=O)c1nnn(-c2cccc(Cl)c2)c1-c1ccncc1
859	CC(NC(=O)c1ccco1)c1nc(-c2ccc(N3CCCCC3)cc2)no1 (stereo unspecified)
722	CCCC(NC(=O)Cc1ccc(C)cc1)C(=O)Nc1nc2ccccc2[nH]1 (stereo unspecified)

Reference: the METLIN SMRT retention time set (Domingo-Almenara et al. 2019)
